Test results as given in US11358939B2, “1,4-benzodiazepin-2-one derivatives and use thereof” (priority 2017, dated 2022).

Experiments:
[1] = test system: writhes induced by intraperitoneal acetic acid; test: Analgesic activity, acetic acid-induced writhing test (peripheral pain model); format: in vivo
Experimental: Assessment of analgesic activity was performed in a model of peripheral pain based on chemical pain induced by intraperitoneal administration of acetic acid, leading to involuntary contractions of abdominal muscles, termed “writhes”, accompanied by hind leg extension and spine arching. The writhes were induced by 0.75% solution of acetic acid, which was administered intraperitoneally 40 min after intraperitoneal administration of test compounds in 0.001-5 mg/kg dose range. […] Analgesic activity was assessed by the ability of the compounds to reduce the number of writhes in test group compared to control group, and indicated as percentage using the following formula: AA=(Wc−Wt/Wc)×100%,
where AA—analgesic activity in %;
Wc—average number of writhes in control group;
Wt—average number of writhes in test group
Test compounds were studied in comparison with the reference drug sodium diclofenac in 10 mg/kg dose. ED50 was calculated using Prozorovsky method.

[2] = test system: mice in acute confined space hypoxia; test: Antihypoxic activity, acute confined space hypoxia (CSH); format: in vivo; conditions: 10 mg/kg
Experimental: (§1) Studies of pharmacological activity of 3-arylamino-1,3-dihydro-2H-benzo[e][1,4]diazepin-2-ones, namely, their action of appetite, assessment of antihypoxic and antidepressant activity was performed in white male rats with body mass 150-180 g and male mice with body mass 18-22 g. The animals were kept on a standard laboratory diet and natural lighting. Animals of control group were given a water-Tween suspension. Test compounds were administered in a suspension with Tween-80 Reference drugs were the hormone leptin, in 0.0002 mg/kg dose, and a well-known antidepressant amitriptyline (solution for injections in 1 ml vials. Test compounds and the water-Tween suspension were administered in a dose of 0.2 ml/100 g of rat body mass.
Screening of antihypoxic activity was performed using the model of acute confined space hypoxia (CSH). CSH was modeled by placing mice into isolated sealed chambers (V=200 ml). Each group included 10 animals. The observation lasted until the death of the animals. Antihypoxic effect was assessed by the survival duration (in min) compared to control, which was taken as 100%, and according to the calculation of antihypoxic protection ratio (Rpr):Rpr=Tt/Tc, where Tt—average animal survival time in the test group; Tc—average animal survival time in the control group.

[3] = test system: food consumption by rats; test: Action on appetite, Anorexia method (liquid food consumption); format: in vivo; conditions: for Amount of consumed liquid food during 30 min in ml / Food consumption, % of control: dose 0,1 mg/kg intraperitoneally
Experimental: as §1
The action of the compounds on rat appetite was studied using «norexia» method. For 2 weeks in an experimental equipment the rats were conditioned to consume liquid food. Then a water-Tween suspension of test articles was administered intraperitoneally to conditioned animals one day before the experiment. After 40 minutes the animals were allowed access to liquid food and the amount of consumed food (in ml) of every rat was registered every 30 minutes for 3 hours. The next day after 2 hours of deprivation the rats in control group were administered a water-Tween suspension intraperitoneally, while the test group was administered the test articles. After 40 minutes the animals were allowed access to liquid food and the amount of consumed food (in ml) of every rat was registered every 30 minutes for 3 hours. Then all food consumption values for each rat were summed and compared to control values. The control group has consumed on average 7 ml of liquid food per 30 minutes. The effect was calculated in percentage compared to control.

[4] = test system: writhes induced by intraperitoneal acetic acid; conditions: prior art section; cited from earlier work
[5] = test system: immobility time of mice; test: Antidepressant activity, Porsolt forced swimming test; format: in vivo; conditions: 0.0002 mg/kg
Experimental: as §1
Antidepressant activity was studied using «Porsolt forced swimming test» [15], which models stress in mice by forcing them to swim in a narrow translucent cylinder, filled by ⅓ volume with water at 23-25° C. temperature. Antidepressant action is assessed by the reduction in immobility time, when the animals have minimal amount of paddling, in seconds or percentage compared to control. The animal behavior was registered for 4 minutes after acclimatization for 2 minutes.

[6] = test system: mice in acute confined space hypoxia; conditions: reference drug, ref. [14]; cited from earlier work
[7] = test system: food consumption by rats; test: Action on appetite, Anorexia method (liquid food consumption); format: in vivo; conditions: leptin dose 20 nM

## CCCOC1N=C(c2ccccc2)c2cc([N+](=O)[O-])ccc2N(CC(=O)OC)C1=O (stereo not drawn) [Compound 48, Methyl-2-(7-nitro-2-oxo-5-phenyl-3-propoxy-2,3-dihydro-1H-benzo[e][1,4]di-azepin-1-yl)acetate]
[1]; compounds Ia, 1 mg/kg intraperitoneally, 40 min before 0.75% acetic acid
  Writhing inhibition, % of control in 1 mg/kg dose: 85%
[1]; ip, intraperitoneal, Prozorovsky method
  ED50: 0.058 ± 0.015 mg/kg
other
  melting point: 214 to 215 °C

## O=C1Nc2ccc([N+](=O)[O-])cc2C(c2ccccc2)=NC1Nc1ccc(Cl)cc1 (stereo not drawn) [Compound 250]
[2]
  Increase of mice survival time during acute confined space hypoxia compared to control: 70%
[3]
  Amount of consumed liquid food during 30 min in ml: 6,3 ± 3,2 ml
  Food consumption, % of control: 85%

## O=C1Nc2ccc([N+](=O)[O-])cc2C(c2ccccc2F)=NC1Nc1cccc(Cl)c1 (stereo not drawn) [Compound 357]
[2]
  Increase of mice survival time during acute confined space hypoxia compared to control: 40.5%
[3]
  Amount of consumed liquid food during 30 min in ml: 5,9 ± 2,2 ml
  Food consumption, % of control: 80%

## CCOC1N=C(c2ccccc2)c2cc(Br)ccc2N(CC(=O)OC)C1=O (stereo not drawn) [methyl-2-(7-bromo-3-etoxy-2-oxo-5-phenyl-2,3-dihydro-1H-benzo[e][1,4]diazepin-1-yl) acetate]
[4]
  ED50, analgesic activity in acetic acid-induced writhing test (prior art): 0.47 ± 0.15 mg/kg

## leptin
[5]
  Reduction of immobility time compared to control: 14%
[6]
  Antihypoxic properties: no antihypoxic properties
[3]; leptin 0.0002 mg/kg
  Reduction in appetite and food consumption compared to control: 63%
[7]
  Amount of consumed liquid food during 30 min in ml: 2,5 ± 0,2 ml
  Food consumption, % of control: 37%
